# Measurements taken from ChEMBL document CHEMBL1147193, “New 5-substituted thiazolo[3,2-b][1,2,4]triazol-6-ones: synthesis and anticancer evaluation” (2007).
# How the values were obtained:
# Assay type in all cases: functional
# PC-3 = test: Growth inhibition of human PC3 cells after 48 hrs by SRB protein assay; conditions: PC-3, 48 h; for TGI: read-out: Log TGI (converted)
# TK-10 = test: Growth inhibition of human TK10 cells after 48 hrs by SRB protein assay; conditions: TK-10, 48 h; for TGI: read-out: Log TGI (converted)
# NCI-H460 [1] = test: Growth inhibition of human NCI-H460 cells after 48 hrs by SRB protein assay; conditions: NCI-H460, 48 h; for TGI: read-out: Log TGI (converted)
# CCRF-CEM = test: Growth inhibition of human CCRF-CEM cells after 48 hrs by SRB protein assay
# RXF 393 = test: Growth inhibition of human RXF393 cells after 48 hrs by SRB protein assay; conditions: RXF 393, 48 h; for TGI: read-out: Log TGI (converted)
# NCI-H460 [2] = test: Anticancer activity against human NCI-H460 cells assessed as growth of cells at 100 uM relative to untreated cells
# 786-0 = test: Growth inhibition of human 786-0 cells after 48 hrs by SRB protein assay; conditions: 786-0, 48 h; for TGI: read-out: Log TGI (converted)
# UACC-62 = test: Growth inhibition of human UACC62 cells after 48 hrs by SRB protein assay; conditions: UACC-62, 48 h; for TGI: read-out: Log TGI (converted)
# M14 = test: Growth inhibition of human M14 cells after 48 hrs by SRB protein assay; conditions: M14, 48 h; for TGI: read-out: Log TGI (converted)
# IGROV-1 = test: Growth inhibition of human IGROV1 cells after 48 hrs by SRB protein assay; conditions: IGROV-1, 48 h; for TGI: read-out: Log TGI (converted)
# NCI-H322M = test: Growth inhibition of human NCI-H322M cells after 48 hrs by SRB protein assay; conditions: for TGI: read-out: Log TGI (converted)
# HCT-116 = test: Growth inhibition of human HCT116 cells after 48 hrs by SRB protein assay; conditions: HCT-116, 48 h; for TGI: read-out: Log TGI (converted)
# SK-MEL-5 = test: Growth inhibition of human SK-MEL-5 cells after 48 hrs by SRB protein assay; conditions: SK-MEL-5, 48 h; for TGI: read-out: Log TGI (converted)
# KM12 = test: Growth inhibition of human KM12 cells after 48 hrs by SRB protein assay; conditions: KM12, 48 h; for TGI: read-out: Log TGI (converted)
# MCF7 = test: Growth inhibition of human MCF7 cells after 48 hrs by SRB protein assay; conditions: MCF7, 48 h; for TGI: read-out: Log TGI (converted)
# SK-MEL-28 = test: Growth inhibition of human SK-MEL-28 cells after 48 hrs by SRB protein assay; conditions: SK-MEL-28, 48 h; for TGI: read-out: Log TGI (converted)
# NCI-H522 = test: Growth inhibition of human NCI-H522 cells after 48 hrs by SRB protein assay; conditions: NCI-H522, 48 h; for TGI: read-out: Log TGI (converted)
# HOP-92 = test: Growth inhibition of human HOP92 cells after 48 hrs by SRB protein assay; conditions: HOP-92, 48 h; for TGI: read-out: Log TGI (converted)
# U-251 = test: Growth inhibition of human U251 cells after 48 hrs by SRB protein assay; conditions: U-251, 48 h; for TGI: read-out: Log TGI (converted)
# LOX IMVI = test: Growth inhibition of human LOX IMVI cells after 48 hrs by SRB protein assay; conditions: for TGI: read-out: Log TGI (converted)
# UO-31 = test: Growth inhibition of human UO31 cells after 48 hrs by SRB protein assay; conditions: UO-31, 48 h; for TGI: read-out: Log TGI (converted)
# HOP-62 = test: Growth inhibition of human HOP62 cells after 48 hrs by SRB protein assay; conditions: HOP-62, 48 h; for TGI: read-out: Log TGI (converted)
# UACC-257 = test: Growth inhibition of human UACC257 cells after 48 hrs by SRB protein assay; conditions: UACC-257, 48 h; for TGI: read-out: Log TGI (converted)
# ACHN = test: Growth inhibition of human ACHN cells after 48 hrs by SRB protein assay; conditions: for TGI: read-out: Log TGI (converted)
# COLO 205 = test: Growth inhibition of human COLO205 cells after 48 hrs by SRB protein assay; conditions: COLO 205, 48 h; for TGI: read-out: Log TGI (converted)
# SW-620 = test: Growth inhibition of human SW620 cells after 48 hrs by SRB protein assay; conditions: SW-620, 48 h; for TGI: read-out: Log TGI (converted)
# HCT-15 = test: Growth inhibition of human HCT15 cells after 48 hrs by SRB protein assay; conditions: HCT-15, 48 h; for TGI: read-out: Log TGI (converted)
# SK-OV-3 = test: Growth inhibition of human SK-OV-3 cells after 48 hrs by SRB protein assay; conditions: SK-OV-3, 48 h; for TGI: read-out: Log TGI (converted)
# HT-29 = test: Growth inhibition of human HT29 cells after 48 hrs by SRB protein assay; conditions: HT-29, 48 h; for TGI: read-out: Log TGI (converted)
# BT-549 = test: Growth inhibition of human BT549 cells after 48 hrs by SRB protein assay; conditions: BT-549, 48 h; for TGI: read-out: Log TGI (converted)
# NCI/ADR-RES = test: Growth inhibition of human NCI/ADR-RES cells after 48 hrs by SRB protein assay; conditions: for TGI: read-out: Log TGI (converted)
# SK-MEL-2 = test: Growth inhibition of human SK-MEL-2 cells after 48 hrs by SRB protein assay; conditions: SK-MEL-2, 48 h; for TGI: read-out: Log TGI (converted)
# SF-268 = test: Anticancer activity against human SF268 cells assessed as growth of cells at 100 uM relative to untreated cells
# MDA-MB-435 = test: Growth inhibition of human MDA-MB-435 cells after 48 hrs by SRB protein assay; conditions: MDA-MB-435, 48 h; for TGI: read-out: Log TGI (converted)
# OVCAR-4 = test: Growth inhibition of human OVCAR4 cells after 48 hrs by SRB protein assay; conditions: OVCAR-4, 48 h; for TGI: read-out: Log TGI (converted)
# A549 = test: Growth inhibition of human A549/ATCC cells after 48 hrs by SRB protein assay; conditions: A549, 48 h; for TGI: read-out: Log TGI (converted)
# [3] = Growth inhibition of human MALME 3M cells after 48 hrs by SRB protein assay; conditions: for TGI: read-out: Log TGI (converted)
# OVCAR-5 = test: Growth inhibition of human OVCAR5 cells after 48 hrs by SRB protein assay; conditions: OVCAR-5, 48 h
# K562 = test: Growth inhibition of human K562 cells after 48 hrs by SRB protein assay; conditions: K562, 48 h
# MOLT-4 = test: Growth inhibition of human MOLT4 cells after 48 hrs by SRB protein assay; conditions: MOLT-4, 48 h
smiles,measurement,setting,value
O=C(CC1Sc2ncnn2C1=O)Nc1ccccc1 (stereo not drawn),GI50,PC-3,72.4 µM
same,TGI,PC-3,> 100 µM
same,GI50,TK-10,19.1 µM
same,TGI,TK-10,39.8 µM
same,GI50,NCI-H460 [1],35.5 µM
same,TGI,NCI-H460 [1],> 100 µM
same,GI50,CCRF-CEM,33.9 µM
same,TGI,CCRF-CEM; read-out: Log TGI (converted),100 µM
same,GI50,RXF 393,18.6 µM
same,TGI,RXF 393,42.7 µM
same,Activity,NCI-H460 [2],0%
same,GI50,786-0,19.5 µM
same,TGI,786-0,36.3 µM
same,GI50,UACC-62,> 100 µM
same,TGI,UACC-62,> 100 µM
same,GI50,M14,21.9 µM
same,TGI,M14,45.7 µM
same,GI50,IGROV-1,25.7 µM
same,TGI,IGROV-1,66.1 µM
same,GI50,NCI-H322M,> 100 µM
same,TGI,NCI-H322M,> 100 µM
same,GI50,HCT-116,32.4 µM
same,TGI,HCT-116,> 100 µM
same,GI50,SK-MEL-5,22.9 µM
same,TGI,SK-MEL-5,47.9 µM
same,GI50,KM12,> 100 µM
same,TGI,KM12,> 100 µM
same,GI50,MCF7,36.3 µM
same,TGI,MCF7,> 100 µM
same,GI50,SK-MEL-28,> 100 µM
same,TGI,SK-MEL-28,> 100 µM
same,GI50,NCI-H522,21.9 µM
same,TGI,NCI-H522,42.7 µM
same,GI50,HOP-92,25.1 µM
same,TGI,HOP-92,66.1 µM
same,GI50,U-251,> 100 µM
same,TGI,U-251,> 100 µM
same,GI50,LOX IMVI,25.7 µM
same,TGI,LOX IMVI,53.7 µM
same,GI50,UO-31,25.1 µM
same,TGI,UO-31,57.5 µM
same,GI50,HOP-62,> 100 µM
same,TGI,HOP-62,> 100 µM
same,GI50,UACC-257,40.7 µM
same,TGI,UACC-257,> 100 µM
same,GI50,ACHN,21.9 µM
same,TGI,ACHN,41.7 µM
same,GI50,COLO 205,25.7 µM
same,TGI,COLO 205,79.4 µM
same,GI50,SW-620,3.24 µM
same,TGI,SW-620,44.7 µM
same,GI50,HCT-15,33.1 µM
same,TGI,HCT-15,> 100 µM
same,GI50,SK-OV-3,> 100 µM
same,TGI,SK-OV-3,> 100 µM
same,GI50,HT-29,> 100 µM
same,TGI,HT-29,> 100 µM
same,GI50,BT-549,0.339 µM
same,TGI,BT-549,1 µM
same,GI50,NCI/ADR-RES,63.1 µM
same,TGI,NCI/ADR-RES,> 100 µM
same,GI50,SK-MEL-2,21.9 µM
same,TGI,SK-MEL-2,53.7 µM
same,Activity,SF-268,110%
same,GI50,MDA-MB-435,41.7 µM
same,TGI,MDA-MB-435,> 100 µM
same,GI50,OVCAR-4,> 100 µM
same,TGI,OVCAR-4,> 100 µM
same,GI50,A549,> 100 µM
same,TGI,A549,> 100 µM
same,GI50,[3],19.1 µM
same,TGI,[3],44.7 µM
O=c1/c(=C/c2ccc(F)cc2)sc2ncnn12,GI50,PC-3,53.7 µM
same,TGI,PC-3,> 100 µM
same,GI50,TK-10,> 100 µM
same,TGI,TK-10,> 100 µM
same,GI50,NCI-H460 [1],61.7 µM
same,TGI,NCI-H460 [1],> 100 µM
same,GI50,RXF 393,46.8 µM
same,TGI,RXF 393,100 µM
same,Activity,NCI-H460 [2],13%
same,GI50,786-0,51.3 µM
same,TGI,786-0,> 100 µM
same,GI50,UACC-62,66.1 µM
same,TGI,UACC-62,> 100 µM
same,GI50,M14,28.8 µM
same,TGI,M14,> 100 µM
same,GI50,IGROV-1,57.5 µM
same,TGI,IGROV-1,> 100 µM
same,GI50,NCI-H322M,> 100 µM
same,TGI,NCI-H322M,> 100 µM
same,GI50,HCT-116,33.9 µM
same,TGI,HCT-116,> 100 µM
same,GI50,SK-MEL-5,41.7 µM
same,TGI,SK-MEL-5,> 100 µM
same,GI50,KM12,35.5 µM
same,TGI,KM12,> 100 µM
same,GI50,MCF7,32.4 µM
same,TGI,MCF7,> 100 µM
same,GI50,SK-MEL-28,52.5 µM
same,TGI,SK-MEL-28,> 100 µM
same,GI50,NCI-H522,50.1 µM
same,TGI,NCI-H522,> 100 µM
same,GI50,HOP-92,47.9 µM
same,TGI,HOP-92,> 100 µM
same,GI50,U-251,60.3 µM
same,TGI,U-251,> 100 µM
same,GI50,LOX IMVI,37.2 µM
same,TGI,LOX IMVI,> 100 µM
same,GI50,UO-31,69.2 µM
same,TGI,UO-31,> 100 µM
same,GI50,HOP-62,70.8 µM
same,TGI,HOP-62,> 100 µM
same,GI50,OVCAR-5,55 µM
same,TGI,OVCAR-5; read-out: Log TGI (converted),> 100 µM
same,GI50,UACC-257,95.5 µM
same,TGI,UACC-257,> 100 µM
same,GI50,ACHN,81.3 µM
same,TGI,ACHN,> 100 µM
same,GI50,COLO 205,61.7 µM
same,TGI,COLO 205,> 100 µM
same,GI50,SW-620,66.1 µM
same,TGI,SW-620,> 100 µM
same,GI50,K562,38.9 µM
same,TGI,K562; read-out: Log TGI (converted),> 100 µM
same,GI50,HCT-15,63.1 µM
same,TGI,HCT-15,> 100 µM
same,GI50,SK-OV-3,> 100 µM
same,TGI,SK-OV-3,> 100 µM
same,GI50,HT-29,45.7 µM
same,TGI,HT-29,> 100 µM
same,GI50,BT-549,42.7 µM
same,TGI,BT-549,100 µM
same,GI50,NCI/ADR-RES,38 µM
same,TGI,NCI/ADR-RES,> 100 µM
same,GI50,SK-MEL-2,> 100 µM
same,TGI,SK-MEL-2,51.3 µM
same,Activity,SF-268,70%
same,GI50,MDA-MB-435,37.2 µM
same,TGI,MDA-MB-435,> 100 µM
same,GI50,OVCAR-4,34.7 µM
same,TGI,OVCAR-4,> 100 µM
same,GI50,A549,87.1 µM
same,TGI,A549,> 100 µM
same,GI50,MOLT-4,38.9 µM
same,TGI,MOLT-4; read-out: Log TGI (converted),> 100 µM
same,GI50,[3],> 100 µM
same,TGI,[3],> 100 µM
